Each block holds one compound with its values, some of them ahead of it.
How the values were obtained:
[1] = target: Serine/threonine-protein kinase MARK2 (Homo sapiens) (UniProt Q7KZI7); details: at 10 µM
[2] = target: T1, Tyrosine-protein kinase ITK/TSK (Homo sapiens) (UniProt Q08881); assay: Selectivity interaction (KinomeScan (DiscoverX)) EUB0001079a ITK; details: at 1 µM
T1 sequence (whole entry): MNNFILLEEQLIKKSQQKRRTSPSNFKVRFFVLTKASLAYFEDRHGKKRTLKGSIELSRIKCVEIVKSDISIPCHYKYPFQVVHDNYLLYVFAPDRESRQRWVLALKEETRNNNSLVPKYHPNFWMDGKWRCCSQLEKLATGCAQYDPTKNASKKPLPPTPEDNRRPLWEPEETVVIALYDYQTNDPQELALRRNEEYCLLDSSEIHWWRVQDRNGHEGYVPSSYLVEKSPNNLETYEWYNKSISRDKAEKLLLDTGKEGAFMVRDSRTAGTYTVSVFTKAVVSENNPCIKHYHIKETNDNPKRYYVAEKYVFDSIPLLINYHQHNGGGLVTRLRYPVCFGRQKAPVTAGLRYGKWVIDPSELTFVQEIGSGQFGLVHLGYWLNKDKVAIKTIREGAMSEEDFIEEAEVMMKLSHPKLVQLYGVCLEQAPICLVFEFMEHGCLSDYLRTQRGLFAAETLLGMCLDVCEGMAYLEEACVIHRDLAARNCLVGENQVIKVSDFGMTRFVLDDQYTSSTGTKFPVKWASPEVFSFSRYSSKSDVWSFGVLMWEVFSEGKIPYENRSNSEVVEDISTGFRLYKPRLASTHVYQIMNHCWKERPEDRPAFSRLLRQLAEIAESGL

[3] = target: Serine/threonine-protein kinase MRCK beta (Homo sapiens) (UniProt Q9Y5S2); assay: Selectivity interaction (KinomeScan (DiscoverX)) EUB0001619a CDC42BPB; details: at 1 µM
[4] = Selectivity interaction (KinomeScan (DiscoverX)) EUB0000045b CDK2H; details: at 1 µM
[5] = target: Rho-associated protein kinase 2 (Homo sapiens, UniProt O75116); assay: Selectivity interaction (KinomeScan (DiscoverX)) EUB0000045b ROCK2
[6] = target: MAP kinase-interacting serine/threonine-protein kinase 2 (Homo sapiens, UniProt Q9HBH9); details: at 10 µM
[7] = target: T2, Mitogen-activated protein kinase kinase kinase 5 (Homo sapiens) (UniProt Q99683); assay: Selectivity interaction (ActivX KiNativ screen (kinase selectivity in THP-1 cell lysates)) EUB0000639a MAP3K5; assay type: subcellular; details: lysate, at 5 µM
T2 sequence (whole entry): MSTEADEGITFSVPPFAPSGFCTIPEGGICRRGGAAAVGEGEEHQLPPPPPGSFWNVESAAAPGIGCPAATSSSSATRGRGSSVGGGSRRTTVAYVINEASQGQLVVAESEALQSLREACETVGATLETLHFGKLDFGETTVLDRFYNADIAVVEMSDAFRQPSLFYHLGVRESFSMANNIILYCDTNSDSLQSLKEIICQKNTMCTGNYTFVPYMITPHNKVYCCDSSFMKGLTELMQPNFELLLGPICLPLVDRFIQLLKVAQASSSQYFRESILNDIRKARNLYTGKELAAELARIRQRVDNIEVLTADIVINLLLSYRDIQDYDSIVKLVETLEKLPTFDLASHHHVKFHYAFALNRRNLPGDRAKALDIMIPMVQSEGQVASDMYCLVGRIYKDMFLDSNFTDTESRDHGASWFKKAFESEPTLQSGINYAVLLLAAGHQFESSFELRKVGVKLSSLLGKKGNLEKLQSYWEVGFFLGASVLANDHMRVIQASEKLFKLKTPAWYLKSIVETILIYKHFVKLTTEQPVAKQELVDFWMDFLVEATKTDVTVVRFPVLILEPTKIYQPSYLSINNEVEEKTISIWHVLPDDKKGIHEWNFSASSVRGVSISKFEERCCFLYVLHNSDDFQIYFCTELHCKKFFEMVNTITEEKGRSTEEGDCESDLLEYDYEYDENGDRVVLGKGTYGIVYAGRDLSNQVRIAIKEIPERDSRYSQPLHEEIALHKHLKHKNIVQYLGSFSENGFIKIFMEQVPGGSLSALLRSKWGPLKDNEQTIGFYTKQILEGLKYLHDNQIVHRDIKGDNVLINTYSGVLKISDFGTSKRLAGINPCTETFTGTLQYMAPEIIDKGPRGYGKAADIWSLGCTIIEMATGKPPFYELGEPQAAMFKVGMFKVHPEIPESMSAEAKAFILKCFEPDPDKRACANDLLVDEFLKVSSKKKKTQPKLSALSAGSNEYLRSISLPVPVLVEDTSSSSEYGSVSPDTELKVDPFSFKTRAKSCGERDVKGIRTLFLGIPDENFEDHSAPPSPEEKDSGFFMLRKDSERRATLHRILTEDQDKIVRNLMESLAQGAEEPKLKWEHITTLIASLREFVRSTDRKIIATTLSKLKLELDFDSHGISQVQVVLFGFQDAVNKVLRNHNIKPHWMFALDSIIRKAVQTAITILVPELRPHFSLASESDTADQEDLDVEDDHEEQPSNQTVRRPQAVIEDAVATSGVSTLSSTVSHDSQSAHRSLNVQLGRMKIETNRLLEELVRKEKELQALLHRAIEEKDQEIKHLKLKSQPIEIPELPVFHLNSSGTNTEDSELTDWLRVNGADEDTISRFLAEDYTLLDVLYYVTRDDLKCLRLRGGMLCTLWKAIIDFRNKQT

[8] = target: Activated CDC42 kinase 1 (Homo sapiens, UniProt Q07912); assay: Selectivity interaction (ActivX KiNativ screen (kinase selectivity in THP-1 cell lysates)) EUB0000639a TNK2; assay type: subcellular; details: lysate
[9] = target: Cyclin-dependent kinase 8 (Homo sapiens, UniProt P49336); assay: Selectivity interaction (KinomeScan (DiscoverX)) EUB0000666a CDK8; details: at 10 µM
[10] = target: T3, Aurora kinase A (Homo sapiens) (UniProt O14965); assay: Selectivity interaction (KinomeScan (DiscoverX)) EUB0000092b STK6; details: at 10 µM
T3 sequence (whole entry): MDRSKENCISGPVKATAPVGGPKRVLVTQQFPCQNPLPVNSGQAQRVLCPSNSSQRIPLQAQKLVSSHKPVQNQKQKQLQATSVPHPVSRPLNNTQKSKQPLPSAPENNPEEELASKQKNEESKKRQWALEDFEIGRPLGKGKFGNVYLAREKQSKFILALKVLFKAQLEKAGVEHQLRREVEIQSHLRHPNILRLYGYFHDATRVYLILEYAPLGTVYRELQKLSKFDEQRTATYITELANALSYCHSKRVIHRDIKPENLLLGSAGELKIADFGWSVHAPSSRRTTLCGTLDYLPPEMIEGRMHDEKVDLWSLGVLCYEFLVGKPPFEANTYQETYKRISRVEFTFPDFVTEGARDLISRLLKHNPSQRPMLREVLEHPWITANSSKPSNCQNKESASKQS

Activated CDC42 kinase 1, sequence (Q07912 whole entry, looked up): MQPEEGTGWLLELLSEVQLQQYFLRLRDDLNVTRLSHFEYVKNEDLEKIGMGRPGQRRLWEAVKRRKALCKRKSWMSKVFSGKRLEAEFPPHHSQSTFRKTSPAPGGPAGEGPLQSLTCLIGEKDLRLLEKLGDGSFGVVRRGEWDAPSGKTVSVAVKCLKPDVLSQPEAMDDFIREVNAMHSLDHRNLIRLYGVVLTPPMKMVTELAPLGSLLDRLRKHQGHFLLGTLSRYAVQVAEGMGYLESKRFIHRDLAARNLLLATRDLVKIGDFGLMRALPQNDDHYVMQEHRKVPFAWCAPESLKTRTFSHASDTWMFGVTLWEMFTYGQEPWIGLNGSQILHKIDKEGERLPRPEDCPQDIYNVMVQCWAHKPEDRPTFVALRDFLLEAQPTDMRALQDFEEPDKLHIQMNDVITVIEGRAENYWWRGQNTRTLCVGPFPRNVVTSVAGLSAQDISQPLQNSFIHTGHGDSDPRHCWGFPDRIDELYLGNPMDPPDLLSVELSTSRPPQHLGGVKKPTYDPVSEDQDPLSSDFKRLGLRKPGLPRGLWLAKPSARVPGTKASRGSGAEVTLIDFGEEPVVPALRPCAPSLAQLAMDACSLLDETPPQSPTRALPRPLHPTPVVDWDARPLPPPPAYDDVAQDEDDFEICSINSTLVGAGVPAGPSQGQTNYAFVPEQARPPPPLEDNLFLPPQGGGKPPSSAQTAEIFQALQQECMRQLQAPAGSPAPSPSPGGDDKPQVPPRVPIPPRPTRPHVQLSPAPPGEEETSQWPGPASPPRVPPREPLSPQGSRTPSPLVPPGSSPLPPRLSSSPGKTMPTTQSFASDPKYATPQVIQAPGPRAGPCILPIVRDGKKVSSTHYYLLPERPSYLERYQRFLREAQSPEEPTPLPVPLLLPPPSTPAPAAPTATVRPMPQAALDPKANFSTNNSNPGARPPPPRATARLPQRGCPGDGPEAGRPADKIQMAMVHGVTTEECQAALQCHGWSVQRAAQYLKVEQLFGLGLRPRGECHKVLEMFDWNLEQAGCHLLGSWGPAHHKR
Rho-associated protein kinase 2, sequence (O75116 whole entry, looked up): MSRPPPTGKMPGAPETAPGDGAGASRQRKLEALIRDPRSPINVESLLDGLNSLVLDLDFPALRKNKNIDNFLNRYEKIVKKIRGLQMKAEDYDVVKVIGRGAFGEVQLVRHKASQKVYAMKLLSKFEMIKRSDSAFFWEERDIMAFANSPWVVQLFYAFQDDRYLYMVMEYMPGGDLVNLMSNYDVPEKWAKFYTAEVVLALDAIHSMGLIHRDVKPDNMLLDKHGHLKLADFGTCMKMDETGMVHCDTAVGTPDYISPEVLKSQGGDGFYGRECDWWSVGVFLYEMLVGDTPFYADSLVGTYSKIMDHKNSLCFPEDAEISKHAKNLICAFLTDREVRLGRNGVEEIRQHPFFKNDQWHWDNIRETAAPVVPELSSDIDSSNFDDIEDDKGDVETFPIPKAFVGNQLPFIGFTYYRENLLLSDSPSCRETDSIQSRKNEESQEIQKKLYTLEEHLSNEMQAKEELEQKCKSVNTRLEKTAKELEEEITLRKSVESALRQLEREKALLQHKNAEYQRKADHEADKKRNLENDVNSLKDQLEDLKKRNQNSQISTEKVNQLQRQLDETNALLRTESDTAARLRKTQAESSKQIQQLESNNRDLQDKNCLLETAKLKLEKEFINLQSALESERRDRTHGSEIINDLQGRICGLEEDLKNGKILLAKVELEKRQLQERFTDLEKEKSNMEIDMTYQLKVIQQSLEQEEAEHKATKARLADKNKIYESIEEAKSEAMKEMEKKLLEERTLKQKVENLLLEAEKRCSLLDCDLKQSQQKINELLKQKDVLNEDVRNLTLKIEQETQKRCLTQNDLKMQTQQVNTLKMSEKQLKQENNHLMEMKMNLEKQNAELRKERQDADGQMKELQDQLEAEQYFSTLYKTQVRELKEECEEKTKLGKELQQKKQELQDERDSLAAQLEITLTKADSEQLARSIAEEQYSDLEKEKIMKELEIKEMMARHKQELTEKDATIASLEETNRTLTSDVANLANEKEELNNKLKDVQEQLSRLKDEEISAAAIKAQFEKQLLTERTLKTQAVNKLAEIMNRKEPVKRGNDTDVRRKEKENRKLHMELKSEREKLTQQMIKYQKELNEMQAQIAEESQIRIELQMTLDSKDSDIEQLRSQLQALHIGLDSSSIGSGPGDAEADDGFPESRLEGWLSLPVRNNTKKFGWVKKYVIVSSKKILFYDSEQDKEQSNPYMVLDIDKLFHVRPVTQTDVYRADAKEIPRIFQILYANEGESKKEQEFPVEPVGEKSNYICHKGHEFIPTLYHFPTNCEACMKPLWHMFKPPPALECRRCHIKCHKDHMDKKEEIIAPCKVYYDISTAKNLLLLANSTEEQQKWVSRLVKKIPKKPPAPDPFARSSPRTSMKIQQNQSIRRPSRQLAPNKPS
Serine/threonine-protein kinase MRCK beta (Homo sapiens), sequence (Q9Y5S2 whole entry): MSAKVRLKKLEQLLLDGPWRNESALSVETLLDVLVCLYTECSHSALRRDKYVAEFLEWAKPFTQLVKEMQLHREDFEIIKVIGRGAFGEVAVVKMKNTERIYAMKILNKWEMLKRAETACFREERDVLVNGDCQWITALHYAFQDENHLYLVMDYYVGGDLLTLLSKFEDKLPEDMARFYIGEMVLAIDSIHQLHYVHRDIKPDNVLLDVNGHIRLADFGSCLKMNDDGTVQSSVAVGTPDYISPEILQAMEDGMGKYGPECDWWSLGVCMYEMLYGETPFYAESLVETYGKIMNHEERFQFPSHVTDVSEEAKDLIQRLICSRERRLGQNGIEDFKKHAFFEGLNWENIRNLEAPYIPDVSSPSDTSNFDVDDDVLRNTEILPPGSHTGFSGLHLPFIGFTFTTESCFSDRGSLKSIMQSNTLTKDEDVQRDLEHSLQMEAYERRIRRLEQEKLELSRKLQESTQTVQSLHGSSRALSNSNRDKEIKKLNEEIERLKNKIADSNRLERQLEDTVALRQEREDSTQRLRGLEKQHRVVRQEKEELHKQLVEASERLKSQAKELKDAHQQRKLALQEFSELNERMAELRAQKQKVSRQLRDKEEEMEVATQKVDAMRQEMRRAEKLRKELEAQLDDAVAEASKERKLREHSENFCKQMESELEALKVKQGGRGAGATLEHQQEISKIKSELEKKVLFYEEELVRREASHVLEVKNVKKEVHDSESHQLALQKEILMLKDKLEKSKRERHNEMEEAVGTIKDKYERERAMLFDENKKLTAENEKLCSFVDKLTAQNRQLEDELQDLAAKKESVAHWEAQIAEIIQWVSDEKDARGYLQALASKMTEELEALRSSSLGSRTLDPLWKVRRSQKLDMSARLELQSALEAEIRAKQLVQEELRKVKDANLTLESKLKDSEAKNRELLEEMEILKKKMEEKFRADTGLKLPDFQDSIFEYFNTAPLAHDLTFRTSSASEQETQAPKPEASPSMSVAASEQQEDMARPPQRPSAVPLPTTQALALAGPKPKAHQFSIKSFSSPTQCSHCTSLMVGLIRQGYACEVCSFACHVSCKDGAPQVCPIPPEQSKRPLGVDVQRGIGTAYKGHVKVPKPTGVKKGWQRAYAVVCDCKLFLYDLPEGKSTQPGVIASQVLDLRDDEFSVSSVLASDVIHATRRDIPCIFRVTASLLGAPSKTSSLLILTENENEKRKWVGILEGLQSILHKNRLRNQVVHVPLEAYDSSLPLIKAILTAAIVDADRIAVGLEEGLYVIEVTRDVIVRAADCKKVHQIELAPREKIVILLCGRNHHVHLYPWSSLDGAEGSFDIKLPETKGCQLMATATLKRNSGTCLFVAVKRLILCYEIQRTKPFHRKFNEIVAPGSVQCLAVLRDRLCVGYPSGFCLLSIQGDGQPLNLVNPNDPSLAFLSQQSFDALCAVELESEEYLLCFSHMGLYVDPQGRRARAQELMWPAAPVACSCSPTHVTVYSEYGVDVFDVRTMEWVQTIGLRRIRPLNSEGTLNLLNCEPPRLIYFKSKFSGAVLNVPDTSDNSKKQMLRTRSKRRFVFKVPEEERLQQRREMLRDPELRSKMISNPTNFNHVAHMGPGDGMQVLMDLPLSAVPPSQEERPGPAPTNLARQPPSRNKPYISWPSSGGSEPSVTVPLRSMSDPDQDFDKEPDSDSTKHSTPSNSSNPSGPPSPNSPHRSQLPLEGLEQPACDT
MAP kinase-interacting serine/threonine-protein kinase 2, sequence (Q9HBH9 whole entry, looked up): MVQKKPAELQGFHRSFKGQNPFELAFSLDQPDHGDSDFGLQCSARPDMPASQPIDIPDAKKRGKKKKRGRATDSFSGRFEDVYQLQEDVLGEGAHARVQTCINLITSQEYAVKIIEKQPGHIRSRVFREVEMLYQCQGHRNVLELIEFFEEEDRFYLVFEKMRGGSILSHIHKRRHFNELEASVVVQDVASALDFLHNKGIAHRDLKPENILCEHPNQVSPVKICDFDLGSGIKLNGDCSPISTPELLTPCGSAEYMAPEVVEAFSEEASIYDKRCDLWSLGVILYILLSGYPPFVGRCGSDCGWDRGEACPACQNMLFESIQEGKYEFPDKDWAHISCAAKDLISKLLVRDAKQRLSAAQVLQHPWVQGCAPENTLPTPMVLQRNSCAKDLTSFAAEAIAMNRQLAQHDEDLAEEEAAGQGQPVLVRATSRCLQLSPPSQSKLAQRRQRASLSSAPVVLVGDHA
Cyclin-dependent kinase 8, sequence (P49336 whole entry): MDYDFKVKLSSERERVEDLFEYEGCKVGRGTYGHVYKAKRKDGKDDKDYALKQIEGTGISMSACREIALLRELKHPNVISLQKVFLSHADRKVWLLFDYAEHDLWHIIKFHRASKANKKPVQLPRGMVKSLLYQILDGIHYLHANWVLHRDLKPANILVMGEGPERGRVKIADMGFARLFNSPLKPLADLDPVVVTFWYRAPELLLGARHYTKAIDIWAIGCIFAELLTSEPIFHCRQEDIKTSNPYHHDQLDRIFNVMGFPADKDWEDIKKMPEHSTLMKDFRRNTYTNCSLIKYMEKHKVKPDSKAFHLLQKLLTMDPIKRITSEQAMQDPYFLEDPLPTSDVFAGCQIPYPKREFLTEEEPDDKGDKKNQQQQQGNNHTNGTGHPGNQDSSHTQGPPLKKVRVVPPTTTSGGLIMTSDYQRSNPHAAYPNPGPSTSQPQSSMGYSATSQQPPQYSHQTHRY

- % of control [1]: 100%
SMILES: CCN(CC)CCCCNc1ncc2cc(-c3cc(OC)cc(OC)c3)c(NC(=O)NC(C)(C)C)nc2n1

SMILES: Nc1cnc(N2CCc3cc(S(=O)(=O)Nc4c(F)cc(Cl)cc4F)cc(N4CCCC4=O)c32)nc1 [TP-020n]
- % of control [2]: 100%

SMILES: N#Cc1cccc(-c2c[nH]c3ncnc(N4CCOCC4)c23)c1
- % of control [3]: 83%

SMILES: C=CC(=O)Nc1cc(-n2c(=O)ccc3cnc4ccc(-c5ccc(NS(C)(=O)=O)cc5)cc4c32)ccc1C
- % of control [4]: 100%
- % of control ([5]; at 1 µM): 87%
- % of control ([5]; at 10 µM): 79%

SMILES: Cc1cc([C@@H](C)Nc2ccccc2C(=O)O)c2nc(N3CCOCC3)cc(=O)n2c1 [AZD-6482]
- % of control [6]: 92%

- % of inhibition [7]: -16.2%
- % of inhibition ([8]; at 0.01 µM): 1.7%
- % of inhibition ([8]; at 0.04 µM): -15.5%
- % of inhibition ([8]; at 0.2 µM): -11.3%
- % of inhibition ([8]; at 1 µM): -19.1%
- % of inhibition ([8]; at 5 µM): -20.6%
SMILES: CC[C@@H]1[C@H](F)C(=O)N[C@@H]1COc1nccc2cc(C(N)=O)c(OC)cc12 [ZIMLOVISERTIB]

SMILES: O=C(NOC[C@H](O)CO)c1ccc(F)c(F)c1Nc1ccc(I)cc1F
- % of control [9]: 100%

SMILES: CCC(=O)N1CCN(c2ccc(-n3c(=O)ccc4cnc5ccc(-c6cnc7ccccc7c6)cc5c43)cc2C(F)(F)F)CC1
- % of control [10]: 100%

From ChEMBL document CHEMBL5465560, “Selectivity Literature for EUbOPEN Chemogenomic Library” (2024)
